The target of test [1] is T1, secreted soluble GalNAc-T2 (Homo sapiens, UniProt Q10471).
T1 construct: 6xHis (N); thrombin cleavage site (N); T7 antibody site (N); made in house; host or cells: baculovirus (pAcGP67A), High Five insect cells
The test can be described thus: Inhibition of secreted soluble GalNAc-T2 (sT2) binding to GalNAc-MUC1 glycopeptide, ELISA. The gist of the method:
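Plate-coated GalNAc-MUC1 glycopeptide was incubated with biotinylated soluble enzyme in PBS/0.05% Tween20 for 2 h at room temperature, after 1 h preincubation with inhibitor. Enzyme was used at end-point titer. Bound protein was detected with streptavidin-HRP and o-phenylenediamine colour development.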
(In an ELISA, binding on a coated surface is turned into a signal by an enzyme label.)

In another test the target is T2, GalNAc-T4 lectin domain (Homo sapiens, UniProt Q8N4A0).
T2 construct: comprises amino acid residues 405-578 of GALNT4; made in house; host or cells: baculovirus (pAcGP67-A), virus made in Sf9, protein produced in High Five insect cells
T2 sequence (Q8N4A0 405-578): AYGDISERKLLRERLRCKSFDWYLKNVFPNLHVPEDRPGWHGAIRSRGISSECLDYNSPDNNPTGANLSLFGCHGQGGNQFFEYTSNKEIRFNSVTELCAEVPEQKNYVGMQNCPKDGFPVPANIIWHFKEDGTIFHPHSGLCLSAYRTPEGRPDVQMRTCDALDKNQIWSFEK
The test can be described thus: Inhibition of GalNAc-T4 lectin domain (T4ld) binding to GalNAc-MUC1 glycopeptide, ELISA.

Test [2] has as its system GalNAc-T2 and -T4 secreted soluble enzymes as well as lectin domains. Nature of the test: Inhibition of GalNAc-transferase lectin binding to GalNAc-glycopeptides, statements on GalNAc-T2 and -T4 together. Particulars: enzymes and isolated lectins. More on the design: species or system human. As to the method: (§1) Direct binding ELISA assay was developed as follows: Polystyrene microtiter plates (Maxisorb, Nunc, Denmark) were coated with peptides or enzymatically glycosylated glycopeptides in PBS overnight at 4° C. Plates were washed and blocked with 0.1% Tween20 and 0.2% BSA in PBS for 1 h at room temperature, followed by incubation with biotinylated proteins in PBS with 0.05% Tween20 for 2 h at room temperature. After four washes with PBS, plates were incubated with 1:2,000 dilution streptavidin-HRP (Sigma) in PBS for 30 min at room temperature and washed four times with PBS. Development was performed with 0.5 mg/ml o-phenylenediamine and 0.02% H2O2 at room temperature for 15 min, and reaction stopped by adding 100 μl/well of 0.5 N H2SO4. Competitive inhibition assays were done at end-point titers of GalNAc-transferase proteins with one hour preincubations with inhibitor.
Lectins and antibodies to carbohydrates usually recognize the anomeric configuration of the sugar structures they bind.
(§2) Inhibition experiments were used to further define the binding specificity of GalNAc-T2 and -T4 secreted soluble enzymes as well as lectin domains compared to Helix Pomatia lectin (Table IV).

In test [3] the test system is MUC1 secreted by wild type CHO/MUC1sol-cloneC4. The test can be described thus: Secreted MUC1 in medium, western blot. The format is cell-based, Chinese Hamster. The note with it: 1-2 mM, compared to control treated or non-treated cells. From the text: Because GalNAcα-benzyl exerts separate effects on O-glycan processing and mucin expression, the use of the novel selective inhibitor of mucin expression, GalNAcβ-benzyl, allow analysis of mucin expression and secretion in different cell line models. Examples of human cell lines (available from ATCC, USA) expressing and secreting mucins are without limitations LS174T, HT29, Colo205, CALU, MCF7, T47D, NCI-H292, and A549. Most human adenocarcinoma cell lines express and secret mucins and analysis with antibodies to detect protein expression or probes to detect mRNA can reveal the types and quantities of mucins. […] This and other cell lines can be used to treat with 2 mM GalNAcβ-benzyl. In this Example we used wild type CHO/MUC1sol-cloneC4 and western blot analysis of medium of cells treated with 1-2 mM GalNAcα-benzyl, GalNAcβ-benzyl, or the control GlcNAcα-benzyl. […] The inhibitory effect on mucin secretion can be quantified by a number of assays known to the skilled in the art including western blot, ELISA, gelfiltration, immunocapture, and other assays.

The test system of test [4] is MUC5AC in HT-29 MTX cells. The test can be described thus: MUC5AC secretion, SDS-PAGE western blot of media with LUM5-1 (FIG. 17). Format: cell-based, human. Particulars: 5 mM, continuous culture, media at 14 days. As for the experimental part:
FIG. 17 illustrates SDS-PAGE Western analysis of MUC5AC secretion from HT29MTX cells using polyclonal anti-MUC5AC antibody LUM5-1. In order to evaluate GalNAcβ-benzyl as an inhibitor of mucin glycosylation and secretion we used the HT-29 metotrexate (MTX) cultured colon carcinoma cells of mucin secreting phenotype. HT-29 MTX cells have a goblet cell like phenotype with constitutive production of MUC5AC. Cells were continuously grown up to 21 days in the presence of 5 mM GalNAcα-benzyl, 5 mM GalNAcβ-benzyl, 5 mM GlcNAcα-benzyl and without inhibitor. […] In striking contrast, MUC5AC was not detected in the media from cells treated with GalNAcα-benzyl (Lane 3) or GalNAcβ-benzyl (Lane 4). Results shown are from media collected at 14 days.
(§3) In order to evaluate GalNAcβ-benzyl as an inhibitor of mucin glycosylation and secretion we used the cultured colon carcinoma cells of mucin secreting phenotypes: HT-29 metotrexate (MTX) cells selected from the HT-29 cell line by culture in the presence of MTX (kind gift from G. Huet, France). The HT-29 MTX cells were selected to yield a goblet cell like phenotype with constitutive production of MUC5AC. In order to ensure proper goblet cell differentiation the HT29MTX cell line were continuously grown up to 21 days in the presence of 5 mM GalNAcα-benzyl, 5 mM GalNAcβ-benzyl, 5 mM GlcNAcα-benzyl and without inhibitor using culture conditions as described in Hennebicq-Reig et al. (Permanent exposure of mucin-secreting HT-29 cells to benzyl-N-acetyl-alpha-D-galactosaminide induces abnormal O-glycosylation of mucins and inhibits constitutive and stimulated MUC5AC secretion. Biochem J. 1998; 334:283-95). […] Furthermore the viscosity of the media from cells with and without inhibitor was evaluated using viscosity micro-measurement.
For orientation: A western blot detects proteins with antibodies after separation by electrophoresis.

Test [5] addresses human GalNAc-T4 (UDP-GalNAc:polypeptide N-acetylgalactosaminyltransferase T4) isolated truncated lectin domain (T4ld), HIS-tagged, amino acid residues 405-578 o (Homo sapiens, UniProt Q8N4A0). Nature of the test: biochemical. The format is binding. Particulars: isolated lectin domain.
Excerpt: In order to minimize the size and functional complexity of GalNAc-transferase lectins to be used as probes for binding studies, we used multiple sequence alignment analysis to predict and design suitable expression constructs for isolated lectin domains (FIG. 2). In the present invention a direct binding assay was developed using isolated lectin domains of GalNAc-T4 and -T2 with minimal size (FIG. 5). […] The lectin Helix Pomatia (HP) was used as a control plant lectin with known binding specificity for […].
as §1
In binding studies using lectins without biotinylation antibodies to the HIS-tag and the T7-tag, or in some experiments antibodies raised to GalNAc-T2 and -T4 enzymes were used to detect binding.
as §2
The ligand target used in this Example is a GalNAc-MUC1 glycopeptide produced enzymatically from synthetic peptides.

Test [6] deals with intracellular MUC5AC, HT29MTX cells. Nature of the test: Intracellular MUC5AC by immunofluorescence staining of HT29MTX cells. Particulars: 5 mM, CLH2 antibody. Format: cell-based, human.
Excerpt: FIG. 18 illustrates immuno-fluorescence staining of HT29MTX cells treated with inhibitors as indicated and stained with the anti-MUC5AC monoclonal antibody, CLH2.
as §3

“Also recorded” adds a separate entry of the source.

As a reminder, the IC50 is the midpoint of a concentration-inhibition curve. Higher therefore signals a need for much substance.

Chain of human GalNAc-T4 (UDP-GalNAc:polypeptide N-acetylgalactosaminyltransferase T4) isolated truncated lectin domain (T4ld), HIS-tagged, amino acid residues 405-578 o (Q8N4A0 405-578): as above
T1 sequence (Q10471 52-571 limits assumed): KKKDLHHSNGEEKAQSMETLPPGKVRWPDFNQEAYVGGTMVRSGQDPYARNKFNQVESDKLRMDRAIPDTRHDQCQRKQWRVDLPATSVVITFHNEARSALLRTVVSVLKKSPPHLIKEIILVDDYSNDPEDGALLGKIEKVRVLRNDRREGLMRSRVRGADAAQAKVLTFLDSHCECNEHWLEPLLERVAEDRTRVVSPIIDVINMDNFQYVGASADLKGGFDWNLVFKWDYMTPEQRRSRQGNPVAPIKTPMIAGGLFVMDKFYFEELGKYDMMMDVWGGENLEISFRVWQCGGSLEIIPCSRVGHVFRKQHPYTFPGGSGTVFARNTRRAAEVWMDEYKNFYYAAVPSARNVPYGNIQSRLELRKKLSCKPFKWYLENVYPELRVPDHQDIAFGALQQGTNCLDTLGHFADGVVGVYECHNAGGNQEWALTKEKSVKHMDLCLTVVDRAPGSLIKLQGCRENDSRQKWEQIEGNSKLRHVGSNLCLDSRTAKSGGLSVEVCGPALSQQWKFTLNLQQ

Regarding `CC(=O)N[C@H]1[C@@H](OCc2ccccc2)O[C@H](CO)[C@H](O)[C@@H]1O` [BzlαGalNAc, benzyl-N-acetyl-alpha-D-galactosaminide], the IC50 in test [1] worked out at 15 mM; on GalNAc-T4 lectin domain, 5 mM. Further, the “inhibition of GalNAc-T2 and -T4 lectin mediated binding, in words” value in test [2] is “equal inhibition”. In addition, in test [3], the “secreted MUC1 in medium” value was “inhibition”. Further, in test [4] (listed as GalNAcα-benzyl), the “MUC5AC in media (secretion)” value is given as “diminished secretion; also recorded: not detected”.
On to `CC(=O)N[C@H]1[C@@H](OCc2ccccc2)O[C@H](CO)[C@H](O)[C@@H]1O` [GalNAcα-benzyl, benzyl-N-acetyl-alpha-D-galactosaminide], for which the “inhibition of GalNAc-T4 lectin domain binding (in words)” value in test [5] was “inhibited binding to the same degree”. For the same compound, in test [6], the “intracellular staining of MUC5AC / storage phenotype” value is listed as “storage phenotype with increased intracellular staining of MUC5AC”.
Take `CC(=O)N[C@H]1[C@H](OCc2ccccc2)O[C@H](CO)[C@H](O)[C@@H]1O` [GalNAcβ-benzyl]: in test [2], the “inhibition of GalNAc-T2 and -T4 lectin mediated binding, in words” value is on record as “equal inhibition”. For the same compound, in test [5], the “inhibition of GalNAc-T4 lectin domain binding (in words)” value is “inhibited binding to the same degree”. Also, the “secreted MUC1 in medium” value in test [3] was “inhibition”. Further, the “MUC5AC in media (secretion)” value in test [4] is “diminished secretion; also recorded: not detected”. Besides, in test [6], the “intracellular staining of MUC5AC / storage phenotype” value is listed as “did not lead to a storage disease phenotype; also recorded: clearly diminished intracellular staining of MUC5AC”.

For the origin of these results see patent US20080038809A1, “ISOLATED LECTIN POLYPEPTIDES CONSISTING OF TRUNCATED […] UDP-GalNAc:POLYPEPTIDE N- ACETYLGALACTOSAMINYLTRANSFERASES” (GLYCOZYM APS, priority 2002, published 2008).
